According to article PMC6123365, “Pharmacokinetics of Nuciferine and N-Nornuciferine, Two Major Alkaloids From Nelumbo nucifera Leaves, in Rat Plasma and the Brain” (Frontiers in Pharmacology, 2018):
Read-outs that look alike come from different tables or passages of the source.

Key:
[1] = design: method as in earlier work; conditions: ref National Center for Biotechnology Information. PubChem Compound Database (CID = 10146; CID = 12313579); cited from earlier work
[2] = Brain pharmacokinetics (unbound, lateral ventricle) by microdialysis after i.v. dose of alkaloid fraction; type: in vivo, rats; conditions: rat brain lateral ventricle, mean ± SD, n = 6; for AUC(0-inf) / AUC(0-t) / MRT inf / half-life / Tmax / Cmax: Sprague-Dawley, brain lateral ventricle microdialysate (unbound), iv; for half-life: read-out: t1/2, λz (converted); for Tmax / Cmax: unbound; for Tmax: i.v. alkaloid fraction 20 mg/kg (NF 9, N-NF 4 mg/kg)
Experimental: The microdialysis experiment was conducted as previously described ([Xiao et al., 2016]). Briefly, the rats were anesthetized with an intraperitoneal dose of chloral hydrate 350 mg/kg, and a guide cannula [MAB6 (9).14.IC; MAB, Stockholm, Sweden] was stereotaxically implanted into the lateral ventricle of the brain at the following coordinates relative to bregma: anterior -0.9 mm; lateral +1.5 mm; and lowered 3.1 mm ventral to the dura surface. The guide cannula was secured in place with skull screws and dental cement. The rats were placed in separate cages for at least 3 days to recover. Then, a light surgery was performed as described above.
The probe was perfused with aCSF containing 5 mM β-CD at a flow rate of 2 μL/min. The brain microdialysis system consisted of a syringe microinfusion pump (CMA 400, CMA Microdialysis, Solna, Sweden), equipment for freely moving animals (CMA 120, CMA Microdialysis, Solna, Sweden), a microdialysis probe (MAB6.14.4; 4 mm, MAB, Stockholm, Sweden) and an automatic sample collector (CMA 470, CMA Microdialysis, Solna, Sweden) set at 4°C. The rat was allowed to equilibrate for 1 h prior to the initiation of sample collection. After blank dialysate samples were collected, the animal received an i.v. dose of the alkaloid fraction at 20 mg/kg by injection through the jugular vein. An 8 min delay was incorporated into the sampling procedure to compensate for the dead volume between the active membrane and the sample collection outlet. The dialysates were collected every 20 min time interval for 2 h and then every 30 min time interval for 4 h. The collected samples were kept at 4°C and analyzed within 24 h.
(§1) Pharmacokinetic parameters were estimated by the drug concentration in the plasma or brain versus time profiles using WinNonlin software (Pharsight Corporation, Mountain View, CA, United States, Version 2.1). A non-compartmental model was employed to calculate the following parameters: initial plasma concentration (C0) for the i.v. dose, plasma or brain maximum concentration (Cmax), time of maximum concentration (Tmax), terminal elimination half-life (t1/2, λz), area under the plasma concentration versus time curve from time zero to the last sampling time (AUC0-t) and zero to infinity (AUC0-inf), total body clearance (CL), volume of distribution (Vd, λz), and MRT. Absolute bioavailability (F) was calculated based on the plasma AUC0-inf obtained after oral and i.v. administration at the equivalent dose. The analyte concentration (Cf) in the brain lateral ventricle at each time point was calculated from its probe recovery (Rdial) and determined concentration (Cd) in dialysate by the equation, Cf = Cd/Rdial.

[3] = Plasma pharmacokinetics after single oral dose of lotus leaf alkaloid fraction; type: in vivo, SD rats; conditions: for bioavailability / Tmax / AUC(0-inf) / AUC(0-t) / Cmax / MRT inf / half-life: male; for bioavailability: SD, rat, from plasma AUC0-inf after oral (50 mg/kg) and i.v. (10 mg/kg) alkaloid fraction, read-out: F (absolute oral bioavailability); for Tmax / AUC(0-inf) / AUC(0-t) / Cmax / MRT inf / half-life / CL / Vd, λz: rat plasma, mean ± SD, n = 5; for Tmax: oral alkaloid fraction 50 mg/kg (NF 22.5, N-NF 10 mg/kg); for AUC(0-inf) / AUC(0-t) / Cmax / MRT inf / half-life / CL / Vd, λz: oral alkaloid fraction 50 mg/kg; for half-life: read-out: t1/2, λz (converted)
Experimental: (§2) The experimental animals (n = 10), male SD rats (200 ± 20 g), were supplied by the Institute of Laboratory Animal Sciences, Chinese Academy of Medical Sciences and Peking Union Medical College (Beijing, China). The animal experiments were approved by the Animal Ethics Committee at the Institute of Medicinal Plant Development, Chinese Academy of Medical Sciences. The day before the experiment, a light surgery was performed. A polyethylene catheter (0.50-mm ID, 1.00-mm OD, Portex Limited, Hythe, Kent, England) was cannulated into the right jugular vein under anesthesia with an intraperitoneal dose of chloral hydrate at 350 mg/kg. After surgery, the rats were placed individually in cages and allowed to recover for at least 12 h. The rats were fasted overnight with free access to water prior to drug administration.
(§3) Rats were randomly divided into two groups (five per group). Group 1 was treated with the alkaloid fraction dissolved in 0.03% HCl at a single oral dose of 50 mg/kg by gastric gavage. Group 2 was treated with the alkaloid fraction dissolved in normal saline solution containing 0.03% HCl at an i.v. dose of 10 mg/kg by rapid injection via the catheter. After i.v. administration, 0.2 mL of heparinized saline was injected into the catheter for cleaning.
(§4) Blood samples (0.2 mL) were collected from the catheter at multiple intervals (0.08, 0.17, 0.25, 0.50, 1, 2, 4, 6, 8, 12, and 16 h) after dosing. Samples were placed into a heparinized centrifuge tube and centrifuged at 3,000 × g and 4°C for 3 min for plasma separation. An aliquot (0.1 mL) of each separated plasma sample was immediately analyzed or stored at -20°C until assay. After each blood collection, 0.2 mL of normal saline containing 20 units of heparin was injected into the catheter to flush the catheter and prevent coagulation.
(§5) An aliquot of 100 μL of plasma was vortexed with 20 μL of IS (10 μg/mL) and then mixed with 1.5 mL of ethyl acetate for 10 min. Following centrifugation at 8,000 × g for 5 min, the organic phase was completely transferred to a glass tube and concentrated by a gentle nitrogen stream at 40°C. Subsequently, the residue was reconstituted in 150 μL of 80% methanol. Then, the solution was transferred into a small clean tube and centrifuged for 5 min at 16,000 × g. Finally, 10 μL of the supernatant was directly injected into the UPLC system for analysis.
as §1

CYP2D6 isoenzyme = tested on: CYP2D6 isoenzyme; design: method as in Ye et al., 2014; conditions: competitive manner; ref Ye et al., 2014; cited from earlier work
[4] = Plasma pharmacokinetics after single i.v. dose of lotus leaf alkaloid fraction; type: in vivo, SD rats; conditions: male, iv, rat plasma, i.v. alkaloid fraction 10 mg/kg, mean ± SD, n = 5; for Vd: read-out: Vd, λz; for half-life: read-out: t1/2, λz (converted)
Experimental: as §2, §3, §4, §5, §1

[5] = rats, cited from earlier work
[6] = i.v. alkaloid fraction 20 mg/kg

Structure (SMILES)	LogP [1]	AUC(0-inf) [2, 6] [ng·h/mL]	AUC(0-t) [2, 6] [ng·h/mL]	MRT inf [2, 6] [h]	half-life [2, 6] [h]	Tmax [2] [h]	Cmax [2, 6] [ng/mL]	CL/F [2, 6] [mL/min/kg]	bioavailability [3] [%]	Tmax [3] [h]	AUC(0-inf) [3] [ng·h/mL]	AUC(0-t) [3] [ng·h/mL]	Cmax [3] [ng/mL]	MRT inf [3] [h]	half-life [3] [h]	CL [3] [mL/min/kg]	Vd, λz [3] [L/kg]	inhibition of CYP2D6 isoenzyme activity (CYP2D6 isoenzyme)	AUC(0-inf) [4] [ng·h/mL]	AUC(0-t) [4] [ng·h/mL]	further results
COc1cc2c3c(c1OC)-c1ccccc1CC3NCC2 (centres unmarked) [N-NF, N-nornuciferine]	3	500 ± 60	460 ± 70	2.98 ± 0.49	1.39 ± 0.68	1.22 ± 0.27	160 ± 30	135 ± 16.7	79.9	1.65 ± 0.78	3400 ± 700	3320 ± 670	570 ± 100	4.71 ± 0.72	2.94 ± 0.4	40.7 ± 9.33	10.34 ± 2.64	significantly inhibit	850 ± 280	740 ± 200	C0 [4]: 690 ± 560 ng/mL; MRT inf [4]: 4.94 ± 1.83 h; clearance [4]: 43.5 mL/min/kg; Vd [4]: 15.2 ± 2.17 L/kg; half-life [4]: 3.84 ± 1.27 h
COc1cc2c3c(c1OC)-c1ccccc1C[C@H]3N(C)CC2 [NF, nuciferine]	3.4	830 ± 130	780 ± 130	2.46 ± 0.35	1.24 ± 0.33	0.89 ± 0.17	320 ± 70	184.7 ± 30	58.1	0.9 ± 0.72	6200 ± 1330	6130 ± 1350	1710 ± 450	3.35 ± 0.8	2.48 ± 0.66	36.5 ± 7.5	7.87 ± 2.84	significantly inhibit	2130 ± 400	2090 ± 380	Vd, λz/F [2, 6]: 19.78 ± 5.79 L/kg; oral bioavailability ([5]; oral administration of pure NF, LC-MS/MS, ref Xie et al., 2010): 69.56%; oral bioavailability ([5]; pure NF, ref Gu et al., 2014): 3.9%; C0 [4]: 2580 ± 890 ng/mL; MRT inf [4]: 2.07 ± 0.74 h; clearance [4]: 35.8 mL/min/kg; Vd [4]: 9.48 ± 3.17 L/kg; half-life [4]: 2.09 ± 0.64 h
